Consider 8 molecules from patent US20200377496A1, “INDOLE AND BENZIMIDAZOLE DERIVATIVES AS DUAL 5-HT2A and 5-HT6 RECEPTOR ANTAGONISTS” (ADAMED PHARMA, S.A., priority 2018, published 2020).

Read-outs that look alike come from different tables or passages of the source.

For assay [1], the target named is T1, 5-HT6 receptors (Homo sapiens, UniProt P50406). The assay is described as follows: 5-HT6 receptor binding assay ([3H]-LSD radioligand). The following applies: membranes from CHO-K1 cells with human 5-HT6 receptor, [3H]-LSD 1 nM. The procedure: (§1) Preparation of Solutions of Test and Reference Compounds.
(§2) 1 mM stock solutions of tested compounds were prepared in DMSO. Serial dilutions of compounds were prepared in 96-well microplate in assay buffers using automated pipetting system epMotion 5070 (Eppendorf). Each compound was tested in 10 concentrations from 1.0E-6 to 1.0E-11 M (final concentration).
5-HT6 Receptor Binding Assay.
Radioligand binding was performed using membranes from CHO-K1 cells stably transfected with the human 5-HT6 receptor (PerkinElmer). All assays were carried out in duplicates. 50 μl working solution of the tested compounds, 50 μl [3H]-LSD (final concentration 1 nM) and 150 μl diluted membranes (8 μg protein per well) prepared in assay buffer (50 mM Tris, pH 7.4, 10 mM MgCl2, 0.1 mM EDTA) were transferred to polypropylene 96 well microplate using 96-wells pipetting station Rainin Liquidator (MettlerToledo). Methiothepin (10 μM) was used to define nonspecific binding. Microplate was covered with a sealing tape, mixed and incubated for 60 minutes at 37° C. The reaction was terminated by rapid filtration through GF/A filter mate presoaked with 0.5% polyethyleneimine for 30 minutes. Ten rapid washes with 200 μl 50 mM Tris buffer (4° C., pH 7.4) were performed using automated harvester system Harvester-96 MACH III FM (Tomtec). The filter mates were dried at 37° C. in forced air fan incubator and then solid scintilator MeltiLex was melted on filter mates at 90° C. for 5 minutes. Radioactivity was counted in MicroBeta2 scintillation counter (PerkinElmer). Data were fitted to a one-site curve-fitting equation with Prism 6 (GraphPad Software) and Ki values were estimated from the Cheng-Prusoff equation.

A further assay concerns the target human GPCR 5-HT6 (Homo sapiens, UniProt P50406). Briefly: Cellular aequorin-based functional assay, 5-HT6. The format is cell-based. Particulars: for 5-HT6 AGO EC50 [nM]: agonist mode, CHO-K1 aequorin cells; for Kb: antagonist mode, reference agonist serotonin 40 nM (EC80), read-out: 5-HT6 ANT Kb. The protocol: as §1
(§3) 1 mM stock solutions of the tested compounds were prepared in DMSO. Serial dilutions were prepared in 96-well microplate in assay buffers using automated pipetting system epMotion 5070 (Eppendorf). Two independent experiments in duplicates were performed and 6 to 10 concentrations were tested.
(§4) 5-HT2A and 5-HT6 Functional Activity Assays.
(§5) Cellular aequorin-based functional assays were performed with γ-irradiated recombinant CHO-K1 cells expressing mitochondrially-targeted Aequorin, human GPCR (5-HT2A or 5-HT6) and the promiscuous G protein α16 (PerkinElemer). Assays were performed according to the standard protocol provided by the manufacturer. After thawing, cells were transferred to assay buffer (DMEM/HAM's F12 with 0.1% protease-free BSA) and centrifuged. Cell pellet was resuspended in assay buffer and coelenterazine h was added at final concentrations of 5 μM. Cell suspension was incubated at 21° C., protected from light with constant agitation, for 4 hours and then diluted with assay buffer to a concentration of 250,000 cells/ml. After 1 hour incubation 50 yl cell suspension was dispensed using automatic injectors built in radiometric and luminescence plate counter MicroBeta2 LumiJET (PerkinElmer, USA) into white opaque 96-well microplate preloaded with tested compounds. Immediate light emission generated following calcium mobilization was recorded for 30-60 seconds. In antagonist mode, after 15-30 minutes incubation reference agonist was added to the above assay mix and light emission was recorded again. Final concentration of reference agonist was equal EC80: serotonin 40 nM for 5-HT6 receptor and α-methylserotonin 30 nM for 5-HT2A receptor. The assays were performed in the agonist mode (5-HT6 AGO and 5-HT2A AGO) as well as antagonist mode (5-HT6 ANT and 5-HT2A ANT).
(§6) IC50 and EC50 were determined by non-linear regression analysis using GraphPad Prism 6.0 software. The log IC50 was used to obtain the Kb by applying the Cheng-Prusoff approximation.

A further assay concerns the target human GPCR 5-HT2A (Homo sapiens, UniProt P28223). Briefly: Cellular aequorin-based functional assay, 5-HT2A. The format is cell-based. The following applies: for 5-HT2A AGO EC50 [nM]: agonist mode, CHO-K1 aequorin cells. The protocol:
as §1, §3, §4, §5, §6

Another assay addresses human 5-HT2A receptor (Homo sapiens, UniProt P28223). The assay is described as follows: 5-HT2A receptor binding assay ([3H]-ketanserin radioligand). The protocol:
as §1, §2
5-HT2A Receptor Binding Assay.
Radioligand binding was performed using membranes from CHO K1 cells stably transfected with the human 5-HT2A receptor (PerkinElmer). All assays were carried out in duplicates. 50 μl working solution of the tested compounds, 50 μl [3H]-ketanserin (final concentration 1 nM) and 150 μl diluted membranes (7 μg protein per well) prepared in assay buffer (50 mM Tris, pH 7.4, 4 mM CaCl2, 0.1% ascorbic acid) were transferred to polypropylene 96-well microplate using 96-wells pipetting station Rainin Liquidator (MettlerToledo). Mianserin (10 μM) was used to define nonspecific binding. Microplate was covered with a sealing tape, mixed and incubated for 60 minutes at 27° C. The reaction was terminated by rapid filtration through GF/B filter mate presoaked with 0.5% polyethyleneimine for 30 minutes. Ten rapid washes with 200 μl 50 mM Tris buffer (4° C., pH 7.4) were performed using automated harvester system Harvester-96 MACH III FM (Tomtec). The filter mates were dried at 37° C. in forced air fan incubator and then solid scintilator MeltiLex was melted on filter mates at 90° C. for 5 minutes. Radioactivity was counted in MicroBeta2 scintillation counter (PerkinElmer). Data were fitted to a one-site curve-fitting equation with Prism 6 (GraphPad Software) and Ki values were estimated from the Cheng-Prusoff equation.

The target in assay [2] is T1, 5-HT6 receptors. Particulars: cited from earlier work.
Where [3] appears, read: antagonist mode, reference agonist α-methylserotonin 30 nM (EC80), read-out: 5-HT2A ANT Kb.
Where [4] appears, read: membranes from CHO K1 cells with human 5-HT2A receptor, [3H]-ketanserin 1 nM, read-out: 5-HT2A Ki.

Chain of human 5-HT2A receptor (P28223 whole entry): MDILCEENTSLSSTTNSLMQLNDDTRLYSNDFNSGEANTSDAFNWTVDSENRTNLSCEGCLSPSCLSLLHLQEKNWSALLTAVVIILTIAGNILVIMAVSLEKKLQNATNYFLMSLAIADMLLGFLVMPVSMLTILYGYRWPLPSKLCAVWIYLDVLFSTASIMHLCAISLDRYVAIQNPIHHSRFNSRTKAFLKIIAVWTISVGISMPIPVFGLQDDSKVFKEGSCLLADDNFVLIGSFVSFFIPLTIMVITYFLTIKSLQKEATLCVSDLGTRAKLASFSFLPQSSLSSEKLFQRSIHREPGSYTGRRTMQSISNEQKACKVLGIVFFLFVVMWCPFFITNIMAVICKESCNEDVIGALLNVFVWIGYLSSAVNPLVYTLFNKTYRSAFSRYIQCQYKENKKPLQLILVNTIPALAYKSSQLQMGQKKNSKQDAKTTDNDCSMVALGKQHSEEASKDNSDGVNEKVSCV
Chain of human GPCR 5-HT2A (P28223 whole entry): as above
T1 sequence (P50406 whole entry): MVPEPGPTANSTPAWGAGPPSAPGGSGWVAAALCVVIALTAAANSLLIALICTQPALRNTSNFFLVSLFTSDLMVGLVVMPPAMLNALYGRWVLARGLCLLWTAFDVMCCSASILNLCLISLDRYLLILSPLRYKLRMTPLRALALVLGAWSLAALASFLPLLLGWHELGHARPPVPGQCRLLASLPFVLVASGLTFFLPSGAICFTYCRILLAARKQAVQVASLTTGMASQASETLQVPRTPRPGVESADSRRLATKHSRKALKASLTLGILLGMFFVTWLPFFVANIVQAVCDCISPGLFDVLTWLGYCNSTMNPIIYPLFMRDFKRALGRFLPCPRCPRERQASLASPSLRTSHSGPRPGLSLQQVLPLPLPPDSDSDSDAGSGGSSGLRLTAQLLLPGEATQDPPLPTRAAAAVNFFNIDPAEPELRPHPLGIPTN
Chain of human GPCR 5-HT6 (P50406 whole entry): as above

As for `Fc1cc(Cn2c(C(F)(F)F)cc3c(N4CCNCC4)cccc32)ccc1Cl` [Compound 16, 1-(4-chloro-3-fluorobenzyl)-4-(piperazin-1-yl)-2-(trifluoromethyl)-1H-indole], the Ki is 620 pM at 5-HT6 receptors [1] and 820 pM at human 5-HT2A receptor (setting [4]). In addition, at human GPCR 5-HT6, the “5-HT6 AGO EC50 [nM]” value is “N.C”. The Kb on human GPCR 5-HT6 is 4400 pM; on human GPCR 5-HT2A (setting [3]), 55000 pM. Further, the “5-HT2A AGO EC50 [nM]” value at human GPCR 5-HT2A is “N.C”.
Turning to `CN1CCN(c2cccc3c2cc(C(F)(F)F)n3Cc2cccc(F)c2)CC1` [Compound 24, 1-[(3-fluorophenyl)methyl]-4-(4-methylpiperazin-1-yl)-2-(trifluoromethyl)-1H-indole], the inhibitory constant (Ki) at 5-HT6 receptors [1] came out at 92 pM; on human 5-HT2A receptor (setting [4]), 730 pM. Further, the “5-HT6 AGO EC50 [nM]” value on human GPCR 5-HT6 is “N.C”. Also, the Kb on human GPCR 5-HT6 came out at 1100 pM; on human GPCR 5-HT2A (setting [3]), 28000 pM. The “5-HT2A AGO EC50 [nM]” value at human GPCR 5-HT2A was “N.C”.
Consider `FC(F)(F)c1cc2c(N3CCNCC3)cccc2n1Cc1cccs1` [Compound 30, 4-(piperazin-1-yl)-1-(thiophen-2-ylmethyl)-2-(trifluoromethyl)-1H-indole], for which affinity at 5-HT6 receptors [1] was put at a Ki of 71 pM. Besides, at human GPCR 5-HT6, the “5-HT6 AGO EC50 [nM]” value was “N.C” and the Kb was 650 pM. Moreover, on human GPCR 5-HT2A, the Kb came out at 5500 pM and the “5-HT2A AGO EC50 [nM]” value is on record as “N.C”. On human 5-HT2A receptor, this molecule displayed an inhibition constant Ki of 330 pM.
With `CN1CCN(c2cccc3c2cc(C(F)(F)F)n3Cc2ccc(Cl)c(Cl)c2)CC1` [Compound 13, 1-(3,4-dichlorobenzyl)-4-(4-methylpiperazin-1-yl)-2-(trifluoromethyl)-1H-indole], the inhibition constant Ki at 5-HT6 receptors [1] stood at 980 pM; on human 5-HT2A receptor (setting [4]) it was 2600 pM. Moreover, the “5-HT6 AGO EC50 [nM]” value at human GPCR 5-HT6 is “N.C”. Also, on human GPCR 5-HT6, the Kb is 9100 pM. The “5-HT2A AGO EC50 [nM]” value at human GPCR 5-HT2A is reported as “N.C”.
With `CC(C)COc1ccc(CNC(=O)N(Cc2ccc(F)cc2)C2CCN(C)CC2)cc1` [pimavanserin], the “affinity for the 5-HT6 receptors” value at 5-HT6 receptors [2] is recorded as “no affinity”.
Consider `Cc1ccc(Cn2c(C(F)(F)F)cc3c(N4CCNCC4)cccc32)o1` [Compound 28, 1-[(5-methylfuran-2-yl)methyl]-4-(piperazin-1-yl)-2-(trifluoromethyl)-1H-indole], for which the Ki at 5-HT6 receptors [1] was 4000 pM; at human 5-HT2A receptor, 480 pM. Also, at human GPCR 5-HT6, the “5-HT6 AGO EC50 [nM]” value was “N.C”. Further, the Kb at human GPCR 5-HT6 is 250 pM; at human GPCR 5-HT2A, 16000 pM. At human GPCR 5-HT2A, the “5-HT2A AGO EC50 [nM]” value was “N.C”.
For `FC(F)(F)c1cc2c(N3CCNCC3)cccc2n1Cc1ccsc1` [Compound 31, 4-(piperazin-1-yl)-1-(thiophen-3-ylmethyl)-2-(trifluoromethyl)-1H-indole], the affinity at 5-HT6 receptors [1], expressed as Ki, was 110 pM. Also, at human GPCR 5-HT6, the “5-HT6 AGO EC50 [nM]” value is “N.C” and the Kb worked out at 200 pM. Besides, on human GPCR 5-HT2A, the Kb worked out at 16000 pM and the “5-HT2A AGO EC50 [nM]” value is recorded as “N.C”. The Ki at human 5-HT2A receptor is 1500 pM.
`CN1CCN(c2cccc3c2cc(C(F)(F)F)n3Cc2ccsc2)CC1` [Compound 32, 4-(4-methylpiperazin-1-yl)-1-(thiophen-3-ylmethyl)-2-(trifluoromethyl)-1H-indole]: the Ki worked out at 61 pM on 5-HT6 receptors [1] and 2300 pM on human 5-HT2A receptor (setting [4]). For the same molecule, the “5-HT6 AGO EC50 [nM]” value on human GPCR 5-HT6 is reported as “N.C”. The Kb was found to be 370 pM at human GPCR 5-HT6 and 11000 pM at human GPCR 5-HT2A (setting [3]). For the same molecule, the “5-HT2A AGO EC50 [nM]” value at human GPCR 5-HT2A is “N.C”.

For orientation: Ki means the dissociation constant of the complex between target and ligand, obtained from inhibition or displacement.
